One assay relates to PBMC. The assay is described as follows: Time dependent PBMC IC50 assay. The format is cell-based. The protocol: Compounds described by embodiments of the present invention were assayed using a time dependent PMBC assay.
Another assay deals with NZB/W F1 mice. The assay is described as follows: Interferon-alpha accelerated systemic lupus erythematosus (SLE) mouse model. It is filed as in vivo. To be noted: ADV-IFN-alpha accelerated SLE, oral daily 0.1, 0.3, 1 or 3 mg/kg from day 14. The method, then: 1-(4-(((6-amino-5-(4-phenoxyphenyl)pyrimidin-4-yl)amino)methyl)piperidin-1-yl)prop-2-en-1-one, designated as “CPD. B”, was evaluated in an interferon-alpha accelerated SLE mouse model. NZB/W F1 mice received i.v. injection at day 0 and day 1 of 10^8 infectious units of adenovirus (ADV-IFN-α) to deliver a transient overexpression on interferon alpha. Oral dosing of the different group treatments was initiated on day 14 and continued daily at 24 hour intervals until the end of the study. Treatment groups consisted of 20% Kleptose HPB in Na-citrate buffer (vehicle) or 0.1, 0.3, 1, or 3 mg/kg of Cpd. […] As shown in Panel 1B Cpd. […] FIG. 2 presents data from another interferon-alpha accelerated SLE experiment in mice. NZB/W F1 mice received i.v. injections at day 0 and day 1 of 10^8 infectious units of adenovirus (ADV-IFN-α) to deliver a transient overexpression on interferon alpha. Oral dosing of the different group treatments (n=10) was initiated on day 14 and continued daily at 24 hour intervals until the end of the study. Treatment groups consisted of 20% Kleptose HPB in Na-citrate buffer (vehicle), 0.1, 0.3, 1, or 3 mg/kg of Cpd. B or Cell Cept®. […] Statiscal analysis was performed using Two way ANOVA with Bonferroni post test with all groups compared to vehicle treated group (*=p<0.05, **=p<0.01, ***=p<0.001).

Molecules are shown by their SMILES. Where only a bound is given, the exact number is not on record here.

Take `C=CC(=O)N1C2CCC1CC(CNc1ncnc(N)c1-c1ccc(Oc3ccccc3)cc1)C2` (centres unmarked) [Compound A48, 1-(3-(((6-amino-5-(4-phenoxyphenyl)pyrimidin-4-yl)amino)methyl)-8-azabicyclo[3.2.1]octan-8-yl)prop-2-en-1-one]: in the assay on PBMC, the 50% inhibitory concentration (IC50) (in general, the concentration that inhibits the measured activity by half) is below 1 µM.

For `C=CC(=O)N1CCC(CNc2ncnc(N)c2-c2ccc(Oc3ccccc3)cc2)CC1` [Cpd. B, 1-(4-(((6-amino-5-(4-phenoxyphenyl)pyrimidin-4-yl)amino)methyl)piperidin-1-yl)prop-2-en-1-one], in the assay with NZB/W F1 mice, the disease activity entry was “reduces the disease activity in a dose-dependent manner”.

Values taken from patent US10413562B2, “Compositions and methods for the production of pyrimidine and pyridine compounds with BTK inhibitory activity” (Merck Patent GmbH, priority 2011, dated 2019).
